{"source": "paper PMC6364417", "about": "“Kinase inhibitor library screening identifies synergistic drug combinations effective in sensitive and resistant melanoma cells” (Journal of Experimental & Clinical Cancer Research : CR, 2019)", "test_in_all_cases": "Kinase inhibitor library screening, PrestoBlue cell viability, 1 or 10 μM, 72 h", "key": {"[1]": {"system": "IGR37-GP cells (Dabrafenib-resistant)", "conditions": "IGR37 GP"}, "501Mel cells (parental)": {"system": "501Mel cells (parental)", "conditions": "501Mel Parental", "how_it_was_run": "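Kinase inhibitors added at two fixed concentrations; 72 h exposure; PrestoBlue readout; % viability vs untreated; n ≥ 2 per line.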"}, "[2]": {"system": "A375-XP cells (Vemurafenib-resistant)", "conditions": "A375 XP"}, "[3]": {"system": "501Mel-GP cells (Dabrafenib-resistant)", "conditions": "501Mel GP"}, "IGR37 cells (parental)": {"system": "IGR37 cells (parental)", "conditions": "IGR37 Parental"}, "[4]": {"system": "IGR37-XP cells (Vemurafenib-resistant)", "conditions": "IGR37 XP"}, "[5]": {"system": "A375-GP cells (Dabrafenib-resistant)", "conditions": "A375 GP"}, "A375 cells (parental)": {"system": "A375 cells (parental)", "conditions": "A375 Parental"}, "[6]": {"system": "501Mel-XP cells (Vemurafenib-resistant)", "conditions": "501Mel XP"}}}
{"smiles": "COc1cc2c(Oc3ccc4[nH]c(C)cc4c3F)ncnc2cc1OCCCN1CCCC1", "note": "[Cediranib (AZD2171)]", "values": [{"measurement": "cell viability (kinase inhibitor library screening)", "setting": "[1]; 1μΜ, in %", "value": 99.5}, {"measurement": "cell viability (kinase inhibitor library screening)", "setting": "[1]; 10μΜ, in %", "value": 4.2}, {"measurement": "cell viability (kinase inhibitor library screening)", "setting": "501Mel cells (parental); 10μΜ, in %", "value": 1.2}, {"measurement": "cell viability (kinase inhibitor library screening)", "setting": "[2]; 1μΜ, in %", "value": 104.3}, {"measurement": "cell viability (kinase inhibitor library screening)", "setting": "[2]; 10μΜ, in %", "value": 4.2}, {"measurement": "cell viability (kinase inhibitor library screening)", "setting": "[3]; 1μΜ, in %", "value": 105.5}, {"measurement": "cell viability (kinase inhibitor library screening)", "setting": "[3]; 10μΜ, in %", "value": 0.9}, {"measurement": "cell viability (kinase inhibitor library screening)", "setting": "IGR37 cells (parental); 1μΜ, in %", "value": 94.9}, {"measurement": "cell viability (kinase inhibitor library screening)", "setting": "IGR37 cells (parental); 10μΜ, in %", "value": 1.6}, {"measurement": "cell viability (kinase inhibitor library screening)", "setting": "[4]; 1μΜ, in %", "value": 97.7}, {"measurement": "cell viability (kinase inhibitor library screening)", "setting": "[4]; 10μΜ, in %", "value": 1.6}, {"measurement": "cell viability (kinase inhibitor library screening)", "setting": "[5]; 1μΜ, in %", "value": 97.5}, {"measurement": "cell viability (kinase inhibitor library screening)", "setting": "[5]; 10μΜ, in %", "value": 15.1}, {"measurement": "cell viability (kinase inhibitor library screening)", "setting": "A375 cells (parental); 1μΜ, in %", "value": 105.9}, {"measurement": "cell viability (kinase inhibitor library screening)", "setting": "A375 cells (parental); 10μΜ, in %", "value": 27.2}, {"measurement": "cell viability (kinase inhibitor library screening)", "setting": "[6]; 1μΜ, in %", "value": 89.8}, {"measurement": "cell viability (kinase inhibitor library screening)", "setting": "[6]; 10μΜ, in %", "value": -0.129}]}
{"smiles": "CC1(COc2ccc3c(c2)ncn3-c2ccc3cccc(N4CCC(N)CC4)c3n2)COC1", "note": "[Crenolanib (CP-868596)]", "values": [{"measurement": "Cell viability in kinase inhibitor library screening, IGR37 GP, 10μΜ", "setting": "[1]; 10μΜ, 72 h", "value": 84.5, "unit": "%"}, {"measurement": "Cell viability in kinase inhibitor library screening, IGR37 GP, 1μΜ", "setting": "[1]; 1μΜ, 72 h, in %", "value": 104.5}, {"measurement": "Cell viability in kinase inhibitor library screening, 501Mel Parental, 1μΜ", "setting": "501Mel cells (parental); 1μΜ, 72 h, in %", "value": 112.4}, {"measurement": "Cell viability in kinase inhibitor library screening, 501Mel Parental, 10μΜ", "setting": "501Mel cells (parental); 10μΜ, 72 h, in %", "value": 12.0}, {"measurement": "Cell viability in kinase inhibitor library screening, A375 XP, 1μΜ", "setting": "[2]; 1μΜ, 72 h", "value": 108.4}, {"measurement": "Cell viability in kinase inhibitor library screening, A375 XP, 10μΜ", "setting": "[2]; 10μΜ, 72 h", "value": 78.4}, {"measurement": "Cell viability in kinase inhibitor library screening, 501Mel GP, 1μΜ", "setting": "[3]; 1μΜ, 72 h, in %", "value": 108.6}, {"measurement": "Cell viability in kinase inhibitor library screening, 501Mel GP, 10μΜ", "setting": "[3]; 10μΜ, 72 h, in %", "value": 51.0}, {"measurement": "Cell viability in kinase inhibitor library screening, IGR37 Parental, 1μΜ", "setting": "IGR37 cells (parental); 1μΜ, 72 h, in %", "value": 103.4}, {"measurement": "Cell viability in kinase inhibitor library screening, IGR37 Parental, 10μΜ", "setting": "IGR37 cells (parental); 10μΜ, 72 h, in %", "value": 89.7}, {"measurement": "Cell viability in kinase inhibitor library screening, IGR37 XP, 10μΜ", "setting": "[4]; 10μΜ, 72 h", "value": 30.9, "unit": "%"}, {"measurement": "Cell viability in kinase inhibitor library screening, A375 GP, 10μΜ", "setting": "[5]; 10μΜ, 72 h", "value": 66.5}, {"measurement": "Cell viability in kinase inhibitor library screening, A375 Parental, 10μΜ", "setting": "A375 cells (parental); 10μΜ, 72 h", "value": 69.9}, {"measurement": "Cell viability in kinase inhibitor library screening, A375 Parental, 1μΜ", "setting": "A375 cells (parental); 1μΜ, 72 h", "value": 109.2}, {"measurement": "Cell viability in kinase inhibitor library screening, 501Mel XP, 10μΜ", "setting": "[6]; 10μΜ, 72 h, in %", "value": 0.1}]}
{"smiles": "C[C@@H](Oc1cc(-c2cnn(C3CCNCC3)c2)cnc1N)c1c(Cl)ccc(F)c1Cl", "note": "[Crizotinib (PF-02341066)]", "values": [{"measurement": "cell viability (kinase inhibitor library screening)", "setting": "[1]; 1μΜ, 72 h", "value": 97.3, "unit": "%"}, {"measurement": "cell viability (kinase inhibitor library screening)", "setting": "[1]; 10μΜ, 72 h", "value": 6.1, "unit": "%"}, {"measurement": "cell viability (kinase inhibitor library screening)", "setting": "501Mel cells (parental); 1μΜ, 72 h", "value": 97.3, "unit": "%"}, {"measurement": "cell viability (kinase inhibitor library screening)", "setting": "501Mel cells (parental); 10μΜ, 72 h", "value": 0.235, "unit": "%"}, {"measurement": "cell viability (kinase inhibitor library screening)", "setting": "[2]; 1μΜ, 72 h", "value": 99.3, "unit": "%"}, {"measurement": "cell viability (kinase inhibitor library screening)", "setting": "[2]; 10μΜ, 72 h", "value": 17.2, "unit": "%"}, {"measurement": "cell viability (kinase inhibitor library screening)", "setting": "[3]; 1μΜ, 72 h", "value": 80.0, "unit": "%"}, {"measurement": "cell viability (kinase inhibitor library screening)", "setting": "[3]; 10μΜ, 72 h", "value": -0.355, "unit": "%"}, {"measurement": "cell viability (kinase inhibitor library screening)", "setting": "IGR37 cells (parental); 1μΜ, 72 h", "value": 93.8, "unit": "%"}, {"measurement": "cell viability (kinase inhibitor library screening)", "setting": "IGR37 cells (parental); 10μΜ, 72 h", "value": 8.1, "unit": "%"}, {"measurement": "cell viability (kinase inhibitor library screening)", "setting": "[4]; 1μΜ, 72 h", "value": 100.4, "unit": "%"}, {"measurement": "cell viability (kinase inhibitor library screening)", "setting": "[4]; 10μΜ, 72 h", "value": 1.5, "unit": "%"}, {"measurement": "cell viability (kinase inhibitor library screening)", "setting": "[5]; 1μΜ, 72 h", "value": 94.9, "unit": "%"}, {"measurement": "cell viability (kinase inhibitor library screening)", "setting": "[5]; 10μΜ, 72 h", "value": 14.4, "unit": "%"}, {"measurement": "cell viability (kinase inhibitor library screening)", "setting": "A375 cells (parental); 10μΜ, 72 h", "value": 20.5, "unit": "%"}, {"measurement": "cell viability (kinase inhibitor library screening)", "setting": "A375 cells (parental); 1μΜ, 72 h", "value": 98.4, "unit": "%"}, {"measurement": "cell viability (kinase inhibitor library screening)", "setting": "[6]; 1μΜ, 72 h", "value": 62.4, "unit": "%"}, {"measurement": "cell viability (kinase inhibitor library screening)", "setting": "[6]; 10μΜ, 72 h", "value": -0.46, "unit": "%"}]}
